According to PubChem BioAssay AID250 (DTP/NCI, 2004):
Several values for one entry are separate records, joined by “and”; a condition that tells them apart may be missing. Equal values may be shown once. Inconclusive results and toxic doses are left out. Rule for the calls: active = survival T/C of 150% or more; inactive = T/C below 125% in these data.

Test system: BDF1 mice, L1210 leukemia sc, survival T/C
Test: NCI In Vivo Anticancer Drug Screen. Data for tumor model L1210 Leukemia (subcutaneous) in B6D2F1 (BDF1) mice
Conditions: endpoint: median survival time, schedule: Q01DX Z (sc), higher = longer survival
Method in brief: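 Mice carrying transplanted tumors received test compounds, and survival or tumor size was measured. Values are the treated-group measurement (T) divided by that of the vehicle-treated control group (C).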

[1] = dose: 23.0 mg/kg/injection, vehicle: methylcellulose (MC)
[2] = dose: 39.0 mg/kg/injection, vehicle: methylcellulose (MC)
[3] = dose: 65.0 mg/kg/injection, vehicle: methylcellulose (MC)
[4] = dose: 108.0 mg/kg/injection, vehicle: methylcellulose (MC)
[5] = dose: 180.0 mg/kg/injection, vehicle: methylcellulose (MC)
[6] = dose: 300.0 mg/kg/injection, vehicle: methylcellulose (MC)
[7] = dose: 500.0 mg/kg/injection, vehicle: methylcellulose (MC)
[8] = dose: 65.0 mg/kg/injection, vehicle: saline
[9] = dose: 108.0 mg/kg/injection, vehicle: saline
[10] = dose: 180.0 mg/kg/injection, vehicle: saline

Measured: T/C

CCCCCn1c(C)cc(/C=C\c2ccc3cc(C)ccc3[n+]2C)c1C
inactive: dose: 0.23 mg/kg/injection, vehicle: methylcellulose (MC) 100 % of control | dose: 0.39 mg/kg/injection, vehicle: methylcellulose (MC) 100 % of control | dose: 0.65 mg/kg/injection, vehicle: methylcellulose (MC) 100 % of control | dose: 1.08 mg/kg/injection, vehicle: methylcellulose (MC) 100 % of control | dose: 1.8 mg/kg/injection, vehicle: methylcellulose (MC) 100 % of control

NC(=O)c1ccc([N+](=O)[O-])cc1
inactive: [1] 90 % of control | [2] 100 % of control | [3] 90 % of control | [4] 90 % of control | [5] 90 % of control | [6] 100 % of control | [7] 100 % of control

CCOS(C)(=O)=O
inactive: dose: 14.0 mg/kg/injection, vehicle: saline 100 % of control | dose: 23.0 mg/kg/injection, vehicle: saline 95 % of control | dose: 39.0 mg/kg/injection, vehicle: saline 100 % of control | [8] 90 % of control | [9] 95 % of control | [10] 90 % of control

OCC1OC(n2cnc3cc(Cl)c(Cl)cc32)C(O)C1O (stereo not given)
inactive: [1] 95 % of control | dose: 23.0 mg/kg/injection, vehicle: water 95 % of control | [2] 95 % of control | dose: 39.0 mg/kg/injection, vehicle: water 105 % of control | [3] 100 % of control | dose: 65.0 mg/kg/injection, vehicle: water 100 % of control | [4] 90 % of control and 100 % of control | dose: 108.0 mg/kg/injection, vehicle: water 95 % of control | [5] 100 % of control and 105 % of control | dose: 180.0 mg/kg/injection, vehicle: water 100 % of control | [6] 105 % of control | [7] 100 % of control

Cn1cc(NC(=O)c2cc(NC(=O)CN=C(N)N)cn2C)cc1C(=O)NCCC(=N)N
inactive: dose: 6.0 mg/kg/injection, vehicle: methylcellulose (MC) 100 % of control | dose: 12.0 mg/kg/injection, vehicle: methylcellulose (MC) 100 % of control | dose: 24.0 mg/kg/injection, vehicle: methylcellulose (MC) 100 % of control

O=c1ccn(C2OC(CO)C(O)C2O)c(=O)[nH]1 (stereo not given)
inactive: [8] 100 % of control | [9] 100 % of control | [10] 95 % of control and 111 % of control | dose: 300.0 mg/kg/injection, vehicle: saline 90 % of control and 100 % of control | dose: 500.0 mg/kg/injection, vehicle: saline 90 % of control and 100 % of control | dose: 833.0 mg/kg/injection, vehicle: saline 100 % of control | dose: 1388.0 mg/kg/injection, vehicle: saline 100 % of control
